# Laboratory results as given in PMC5664379 (2017).
# Tested on: G4 DNA [(CG3)2CGC(AG3)2G] (DNA, G4) CGGGCGGGCGCAGGGAGGGG
# Assay: UV-vis mole-ratio titration, global fit
# Details: buffer pH 7.1, 25 °C; intrinsic, two equivalent anticooperative sites, ω 0.43; stepwise fit equally good: 7.07, 5.79
structure (smiles),measurement,value
C[n+]1ccc(-c2c3nc(c(-c4cc[n+](C)cc4)c4ccc([nH]4)c(-c4cc[n+](C)cc4)c4nc(c(-c5cc[n+](C)cc5)c5ccc2[nH]5)C=C4)C=C3)cc1,lg K1-2,6.79
